Molecular target: Egl nine homolog 1 (Homo sapiens, UniProt Q9GZT9)
Assay: Inhibition of EGLN1

Chain of Egl nine homolog 1 (Q9GZT9 whole entry): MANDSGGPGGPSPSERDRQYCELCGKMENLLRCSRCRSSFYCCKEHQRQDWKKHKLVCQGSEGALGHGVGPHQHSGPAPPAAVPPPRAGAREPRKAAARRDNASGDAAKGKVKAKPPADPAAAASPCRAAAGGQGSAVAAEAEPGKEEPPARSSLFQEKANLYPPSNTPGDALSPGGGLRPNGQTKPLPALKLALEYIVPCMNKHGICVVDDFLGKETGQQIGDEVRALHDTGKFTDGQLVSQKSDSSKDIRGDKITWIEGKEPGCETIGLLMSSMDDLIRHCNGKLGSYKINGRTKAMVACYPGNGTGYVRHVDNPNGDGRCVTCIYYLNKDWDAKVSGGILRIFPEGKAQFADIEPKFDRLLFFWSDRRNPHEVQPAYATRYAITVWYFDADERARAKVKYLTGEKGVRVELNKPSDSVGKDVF

IC50	Structure (SMILES)
> 100 µM	O=C(O)CNC(=O)c1cc(-c2ccc(Cl)cc2)ccn1
> 100 µM	O=C(O)CNC(=O)c1ccc(-c2cccc(Cl)c2)cn1
> 100 µM	O=C(O)CNC(=O)c1ccccn1

Reference: ChEMBL document CHEMBL1138875, “Design and synthesis of substituted pyridine derivatives as HIF-1alpha prolyl hydroxylase inhibitors” (Bioorg Med Chem Lett, 2006)
